Laboratory results: article PMC4511006 (PLoS ONE, 2015)
Several values for one entry are separate records, joined by “and”; a condition that tells them apart may be missing. Equal entries are not always repeated. Ends that are not written are not given here.

Key:
[1] = system: classical pathway complement activity in factor B-depleted human serum; assay: Hemolysis assay using factor-B depleted serum and antibody-sensitized sheep erythrocytes; type: biochemical; details: 0.77mM peptide in factor B-depleted serum; triplicate, mean; standardized to water or DMSO
Procedure: (§1) Soluble peptides were dissolved in water whereas insoluble peptides were reconstituted in DMSO. Results were standardized to water or DMSO, as appropriate.

[2] = biological target: T1, C1 complex (C1s bound to C1q) (Homo sapiens, UniProt P02745+P02746+P02747); assay: Displacement (competition ELISA) assay of C1s from C1; type: binding; details: C1 0.05μg; CP from 0.145μM, PA from 1.45μM (10-fold molar excess)
T1 construct: partially purified C1 complex was added to wells at a constant amount
T1 sequence (P02745 23-245): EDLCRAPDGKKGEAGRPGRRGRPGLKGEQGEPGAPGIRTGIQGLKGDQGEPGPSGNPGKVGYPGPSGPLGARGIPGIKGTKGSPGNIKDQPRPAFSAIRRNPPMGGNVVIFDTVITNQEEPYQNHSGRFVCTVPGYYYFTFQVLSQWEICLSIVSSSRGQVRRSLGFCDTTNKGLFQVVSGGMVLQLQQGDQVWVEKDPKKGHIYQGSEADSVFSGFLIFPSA
T1 sequence (P02746 28-253): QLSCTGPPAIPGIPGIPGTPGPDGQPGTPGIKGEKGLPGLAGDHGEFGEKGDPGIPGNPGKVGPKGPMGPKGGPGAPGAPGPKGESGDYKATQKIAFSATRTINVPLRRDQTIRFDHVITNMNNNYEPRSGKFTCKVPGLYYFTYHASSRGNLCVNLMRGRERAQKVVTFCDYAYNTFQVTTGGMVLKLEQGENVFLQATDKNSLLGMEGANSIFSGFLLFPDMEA
T1 sequence (P02747 29-245): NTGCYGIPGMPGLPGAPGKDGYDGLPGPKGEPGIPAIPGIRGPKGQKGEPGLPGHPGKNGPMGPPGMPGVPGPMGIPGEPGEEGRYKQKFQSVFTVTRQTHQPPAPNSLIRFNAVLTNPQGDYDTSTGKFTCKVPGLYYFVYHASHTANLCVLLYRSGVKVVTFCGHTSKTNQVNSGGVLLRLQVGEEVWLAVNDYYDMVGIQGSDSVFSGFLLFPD
Procedure: This was performed similarly to the competitive binding assay described by Hair et al., 2010 [8], with the following differences. Plates were coated with monoclonal antibody to C1q (Quidel) at 1:1000 overnight. In blocking buffer containing 2mM CaC1_2, partially purified C1 complex was added to wells at a constant amount (0.05μg) with decreasing amounts of either CP or PA, starting with concentrations for CP at 0.145μM and 1.45μM for PA. Detection of C1q and C1s was confirmed as described by Hair et al., 2010 [8].

Solubility in water = type: physicochemical
Procedure: as §1

intact C1q = biological target: intact C1q; design: method as in PMID 22906481; details: SPR; cited from earlier work
complement activation = details: Wistar rats, delivered IV; cited from earlier work
From the text: However, a serious limitation to these peptide analogs was their lack of solubility in aqueous solution. Given the aqueous solubility of PA-dPEG24, we set out to determine their efficacy in vivo.

ficolin L (ficolin-2) = ficolin L (ficolin-2) (Homo sapiens, UniProt Q15485); assay: ELISA, biotinylated PA binding to ficolin L; details: ficolin adsorbed at 10μg/mL, 0.4M NaCl in blocking buffer, compared with C1q
ficolin L (ficolin-2), sequence (Q15485 26-313): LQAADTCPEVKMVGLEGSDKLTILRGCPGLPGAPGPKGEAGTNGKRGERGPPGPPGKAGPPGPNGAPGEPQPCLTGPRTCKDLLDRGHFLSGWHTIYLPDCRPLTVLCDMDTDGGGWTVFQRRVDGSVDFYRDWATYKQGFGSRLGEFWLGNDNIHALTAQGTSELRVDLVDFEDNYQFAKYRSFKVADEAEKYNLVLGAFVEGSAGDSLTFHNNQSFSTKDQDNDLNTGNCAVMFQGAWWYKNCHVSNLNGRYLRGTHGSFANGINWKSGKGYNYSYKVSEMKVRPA
Procedure: (§2) Wild-type recombinant ficolins L (ficolin-2), H (ficolin-3), M (ficolin-1) were adsorbed to a microtiter plate at 10μg/mL. C1q (25nM) and BSA (30μg/mL) were immobilized as controls. Plates were blocked with 3% BSA/PBST for 2h. Biotinylated PA was added at various concentrations in blocking buffer containing 0.4M NaCl (to reduce nonspecific binding) and incubated for 1h at room temperature. Following washing, wells were probed neutravidin-HRP (1:4000) in blocking buffer for 1h and developed as described above. Absorbance values from wells not incubated with biotinylated PA were subtracted as background.

ficolin H (ficolin-3) = ficolin H (ficolin-3) (Homo sapiens, UniProt O75636); assay: ELISA, biotinylated PA binding to ficolin H; details: ficolin adsorbed at 10μg/mL, 0.4M NaCl in blocking buffer, compared with C1q
ficolin H (ficolin-3), sequence (O75636 24-299): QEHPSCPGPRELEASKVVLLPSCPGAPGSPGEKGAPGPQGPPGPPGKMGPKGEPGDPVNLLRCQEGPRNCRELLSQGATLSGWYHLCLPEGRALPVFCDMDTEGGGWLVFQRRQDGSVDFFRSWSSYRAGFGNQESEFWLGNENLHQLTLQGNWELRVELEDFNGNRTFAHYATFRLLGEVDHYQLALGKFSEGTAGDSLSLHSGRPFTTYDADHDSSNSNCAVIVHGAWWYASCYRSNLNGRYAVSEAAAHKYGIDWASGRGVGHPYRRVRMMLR
Procedure: as §2

C1q = biological target: T2, C1q (Homo sapiens, UniProt P02745+P02746+P02747); assay: Cross-linking of biotinylated PA to C1q with BS3, SDS-PAGE/western blot; type: binding; details: C1q:biotinylated PA 1:25, BS3 20μM
T2 construct: Purified C1q (1μg) was added to wells
T2 sequence (P02745 23-245): as the sequence (P02745 23-245) above
T2 sequence (P02746 28-253): as the sequence (P02746 28-253) above
T2 sequence (P02747 29-245): as the sequence (P02747 29-245) above
Procedure: Purified C1q and biotinylated PA, at a ratio of 1:25, were incubated in conjugation buffer (0.1M Na2HPO4, 0.15M NaCl, pH 8.0) at room temperature for 2.5h. The crosslinker BS^3 (Bis(sulfosuccinimidlyl) suberate, Pierce) was added to a final concentration of 20μM and the mixture was incubated for 30 min. The reaction was quenched with 1M Tris-HCl (pH 7.5) to a final concentration of […] for 15 min. Reactions were analyzed via SDS-PAGE (NU-PAGE Bis/Tris 4–12% gradient gel) and western blot using a 1:1500 dilution of streptavidin IR 680 (LiCor) for 1h, 1:2000 dilution of goat anti-C1q IgG (CompTech) for 1h and 1:10,000 dilution of donkey anti-goat IgG IR 800 (Licor) for 1h. Gels were analyzed on an Odyssey Infrared Imaging System (Licor) and identical gels were visualized with bio-safe Coomassie stain (Bio-Rad) to confirm total protein content.

ficolin M (ficolin-1) = ficolin M (ficolin-1) (Homo sapiens, UniProt O00602); assay: ELISA, biotinylated PA binding to ficolin M; details: ficolin adsorbed at 10μg/mL, 0.4M NaCl in blocking buffer, compared with C1q
ficolin M (ficolin-1), sequence (O00602 30-326): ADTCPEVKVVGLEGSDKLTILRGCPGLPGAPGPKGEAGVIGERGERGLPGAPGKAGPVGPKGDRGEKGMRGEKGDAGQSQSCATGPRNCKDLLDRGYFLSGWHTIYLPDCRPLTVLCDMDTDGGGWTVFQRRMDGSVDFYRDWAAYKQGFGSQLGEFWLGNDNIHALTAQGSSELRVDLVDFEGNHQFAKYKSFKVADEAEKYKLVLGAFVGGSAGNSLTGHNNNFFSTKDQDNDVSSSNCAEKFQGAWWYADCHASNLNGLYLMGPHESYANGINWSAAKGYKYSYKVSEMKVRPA
Procedure: as §2

## RALILEPICCQERAA [PA-I1R, arginine substitution peptide of PA]
[1]
  Hemolysis (%): 91.93%

## IAEILEPICCQERAA [PA-L3E, glutamic acid substitution peptide of PA]
[1]
  Hemolysis (%): 100.27%

## IALILEPICCQERAR [PA-A15R]
[1]
  Hemolysis (%): 44.24%

## IALILEPICCRERAA [PA-Q11R]
[1]
  Hemolysis (%): 90.87%

## IALILEPECCQERAA [PA-I8E, glutamic acid substitution peptide of PA]
[1]
  Hemolysis (%): 95.74%

## IALILEPICCQRRAA [PA-E12R]
[1]
  Hemolysis (%): 95.83%

## IALIREPICCQERAA [PA-L5R, arginine substitution peptide of PA]
[1]
  Hemolysis (%): 93.40%

## IRLILEPICCQERAA [PA-A2R, arginine substitution peptide of PA]
[1]
  Hemolysis (%): 87.28%

## IALIEEPICCQERAA [PA-L5E, glutamic acid substitution peptide of PA]
[1]
  Hemolysis (%): 94.33%

## IALILEPICCQERAE [PA-A15E]
[1]
  Hemolysis (%): 93.13%

## IALILEPICCQEEAA [PA-R13E]
[1]
  Hemolysis (%): 101.99%

## IALILERICCQERAA [PA-P7R, arginine substitution peptide of PA]
[1]
  Hemolysis (%): 89.85%

## CC[C@H](C)[C@H](N)C(=O)N[C@@H](C)C(=O)N[C@@H](CC(C)C)C(=O)N[C@H](C(=O)N[C@@H](CC(C)C)C(=O)N[C@@H](CCC(=O)O)C(=O)N1CCC[C@H]1C(=O)N[C@H](C(=O)N[C@@H](CS)C(=O)N[C@@H](CS)C(=O)N[C@@H](CCC(N)=O)C(=O)N[C@@H](CCC(=O)O)C(=O)N[C@@H](CCCNC(=N)N)C(=O)N[C@@H](C)C(=O)N[C@@H](C)C(=O)O)[C@@H](C)CC)[C@@H](C)CC [PA]
[1]
  Hemolysis (%): 39.49%
[2]
  displacement of C1s from C1q: did not demonstrate competitive displacement of C1s from C1q
Solubility in water
  solubility in water / aqueous solutions: lack of solubility in aqueous solutions
Intact C1q
  Kd: 33.3 nM and 33 nM
Complement activation
  inhibition of complement activation in vivo: able to inhibit complement activation in Wistar rats

## IELILEPICCQERAA [PA-A2E, glutamic acid substitution peptide of PA]
[1]
  Hemolysis (%): 92.24%

## EALILEPICCQERAA [PA-I1E, glutamic acid substitution peptide of PA]
[1]
  Hemolysis (%): 89.27%

## IALILEPICCQERRA [PA-A14R]
[1]
  Hemolysis (%): 88.65%

## IALILEPICCQEREA [PA-A14E]
[1]
  Hemolysis (%): 98.09%

## IALRLEPICCQERAA [PA-I4R, arginine substitution peptide of PA]
[1]
  Hemolysis (%): 43.71%

## biotinylated PA: C-terminally biotinylated PA peptide (IALILEPICCQERAA-biotin; cysteine pairing not given here)
Ficolin L (ficolin-2)
  binding to ficolin L: bound PA to the same degree as C1q
Ficolin H (ficolin-3)
  binding to ficolin H: bound PA to the same degree as C1q
C1q
  binding to C1q chains after cross-linking: can bind monomeric chains of C1q along with the dimers A-B and C-C
Ficolin M (ficolin-1)
  binding to ficolin M: bound PA to the same degree as C1q

## IALELEPICCQERAA [PA-I4E, glutamic acid substitution peptide of PA]
[1]
  Hemolysis (%): 92.07%

## IALILEPRCCQERAA [PA-I8R, arginine substitution peptide of PA]
[1]
  Hemolysis (%): 62.32%

## IALILRPICCQERAA [PA-E6R, arginine substitution peptide of PA]
[1]
  Hemolysis (%): 87.59%

## IALILEEICCQERAA [PA-P7E, glutamic acid substitution peptide of PA]
[1]
  Hemolysis (%): 96.10%

## IALILEPICCEERAA [PA-Q11E]
[1]
  Hemolysis (%): 65.60%

## IARILEPICCQERAA [PA-L3R, arginine substitution peptide of PA]
[1]
  Hemolysis (%): 80.45%
